Among the test systems are K-562 leukemia; A498 renal; SNB-19 CNS; HCC-2998 colon; MALME-3M melanoma; UO-31 renal; NCI-H522 lung; MDA-MB-435; NCI/ADR-RES ovarian.
Test in all cases: growth of human tumour cells (NCI), 48 h

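Method: 48-hour compound exposure of cells in 96-well plates, five concentrations, linear interpolation of endpoints. TGI: total growth inhibition.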

Regarding `COc1cc(-c2cc(=O)c3ccccc3o2)ccc1N`, the TGI with K-562 leukemia, with A498 renal, with SNB-19 CNS, with HCC-2998 colon, with MALME-3M melanoma and with UO-31 renal was greater than 100 µM throughout. The compound also came in with a TGI with NCI-H522 lung greater than 100 µM.

Consider `O=c1c2ccccc2nc(-c2ccc(Br)cc2)n1NC1OC(CO)C(O)C(O)C1O` (centres undefined), for which the TGI in the experiment on K-562 leukemia, in the experiment on A498 renal, in the experiment on SNB-19 CNS, in the experiment on HCC-2998 colon, in the experiment with MALME-3M melanoma and in the experiment on UO-31 renal was greater than 100 µM throughout. In the experiment with NCI-H522 lung, this compound gave a TGI greater than 100 µM.

For the compound `O=C(/C=C\c1cccc2ccccc12)c1cccs1`, the TGI in the experiment on K-562 leukemia is 8.79 µM; with A498 renal, 35.6 µM; with SNB-19 CNS, 25.3 µM; in the experiment on HCC-2998 colon it was 30 µM; with MALME-3M melanoma it was 25.1 µM; with UO-31 renal, 25.6 µM. This compound showed a TGI in the experiment with NCI-H522 lung of 8.49 µM.

On to `C/C=C/C=N/N(C(=O)c1cc([N+](=O)[O-])cc([N+](=O)[O-])c1)C1=NC(c2ccccc2)C(c2ccccc2)=NN1` (centres undefined), for which the TGI is greater than 100 µM in the experiment with K-562 leukemia; greater than 100 µM in the experiment with A498 renal; greater than 100 µM in the experiment on SNB-19 CNS; greater than 100 µM with HCC-2998 colon; 75.2 µM in the experiment with MALME-3M melanoma; greater than 100 µM in the experiment on UO-31 renal. The TGI in the experiment on NCI-H522 lung was found to be 57 µM.

Turning to `Cc1ccccc1NC(=O)C(=O)C(c1cnc2ccc([N+](=O)[O-])cc2n1)[N+](=O)[O-]` (centres undefined), the TGI in the experiment with K-562 leukemia, in the experiment on A498 renal, with SNB-19 CNS, in the experiment on HCC-2998 colon, in the experiment on MALME-3M melanoma and with UO-31 renal was greater than 100 µM in each case. In addition, in the experiment on NCI-H522 lung, the TGI was greater than 100 µM.

Take `CCC(C)OC(=O)C1C2CCC(O2)C1C(=O)O` (centres undefined): the TGI in the experiment on K-562 leukemia, with A498 renal, in the experiment on SNB-19 CNS, in the experiment on HCC-2998 colon, in the experiment on MALME-3M melanoma and in the experiment with UO-31 renal was greater than 100 µM in each case. For the same compound, the TGI in the experiment with NCI-H522 lung was greater than 100 µM.

In the case of `N=C1N(c2ccccc2)C(=O)C23CCCC2C13N1CCOCC1` (centres undefined), the TGI in the experiment on K-562 leukemia, with SNB-19 CNS, in the experiment with HCC-2998 colon, in the experiment on MALME-3M melanoma, in the experiment on UO-31 renal and in the experiment on NCI-H522 lung was greater than 100 µM throughout.

With `CN=C1Nc2ccc(Cl)cc2C(c2ccccc2)=NN1C`, the TGI was greater than 100 µM in the experiment with K-562 leukemia; greater than 100 µM in the experiment with A498 renal; greater than 100 µM in the experiment on SNB-19 CNS; 64.7 µM with HCC-2998 colon; greater than 100 µM in the experiment on MALME-3M melanoma; greater than 100 µM in the experiment with UO-31 renal. The compound also came in with a TGI with NCI-H522 lung greater than 100 µM.

With `COC(=O)C1=CN=C(C(=O)OC)NN1`, the TGI with K-562 leukemia, in the experiment on SNB-19 CNS, in the experiment with MALME-3M melanoma, in the experiment on UO-31 renal and in the experiment on NCI-H522 lung was greater than 100 µM throughout.

With `CN(C)C(=O)/N=c1\ss/c(=N\C(=S)N(C)C)n1-c1ccccc1`, the TGI was greater than 56.1 µM in the experiment with K-562 leukemia; greater than 100 µM with A498 renal; greater than 100 µM in the experiment with SNB-19 CNS; greater than 100 µM in the experiment with HCC-2998 colon; greater than 100 µM in the experiment on MALME-3M melanoma; greater than 100 µM in the experiment with UO-31 renal. Also, the TGI in the experiment on NCI-H522 lung turned out to be 8.12 µM.

Turning to `COc1cc2nc(Sc3c([N+](=O)[O-])ncn3C)[nH]c2cc1OC`, the TGI in the experiment with A498 renal, in the experiment with SNB-19 CNS, in the experiment on HCC-2998 colon, with MALME-3M melanoma and with UO-31 renal was greater than 100 µM each time.

Turning to `O=C(O)c1ccc(O)c(N=Nc2cc(S(=O)(=O)O)c3ccccc3c2O)c1`, the TGI in the experiment on K-562 leukemia, in the experiment with A498 renal, with SNB-19 CNS, in the experiment with HCC-2998 colon, in the experiment on MALME-3M melanoma and in the experiment with UO-31 renal was greater than 100 µM each time.

Consider `Oc1ccc(CNCc2ccccc2)c2cccnc12`, for which the TGI in the experiment on K-562 leukemia is greater than 100 µM; in the experiment with A498 renal, greater than 100 µM; with MDA-MB-435, greater than 100 µM; in the experiment with SNB-19 CNS, greater than 100 µM; with NCI/ADR-RES ovarian, 16.9 µM; in the experiment on UO-31 renal, greater than 24.4 µM. Further, the TGI in the experiment on NCI-H522 lung is greater than 100 µM.

Consider `NC(=O)N/N=C(\C(=O)C(=O)Nc1ccc(Cl)c(C(F)(F)F)c1)c1nc2ccc(C(=O)c3ccccc3)cc2[nH]c1=O`, for which the TGI in the experiment with K-562 leukemia, with A498 renal, in the experiment on SNB-19 CNS, with HCC-2998 colon, in the experiment with MALME-3M melanoma and in the experiment on UO-31 renal was greater than 100 µM throughout. In the experiment on NCI-H522 lung, the TGI is greater than 100 µM.

Turning to `O=C1C(=O)N(C(=O)c2ccc(Cl)c(Cl)c2)c2ccc(Cl)cc21`, the TGI in the experiment on K-562 leukemia is greater than 100 µM; in the experiment on A498 renal it was 63.8 µM; with SNB-19 CNS, greater than 100 µM; in the experiment on UO-31 renal it was greater than 100 µM.

Consider `Nc1ncnc(NC2C=C(CO)C(O)C2O)c1[N+](=O)[O-]` (centres undefined), for which the TGI in the experiment with K-562 leukemia, in the experiment on A498 renal, in the experiment on SNB-19 CNS, in the experiment with HCC-2998 colon and in the experiment on UO-31 renal was greater than 100 µM throughout.

In the case of `CC(C)NCC(O)COC(=O)c1cccs1` (centres undefined), the TGI in the experiment on K-562 leukemia, in the experiment on SNB-19 CNS, in the experiment with HCC-2998 colon, with MALME-3M melanoma, with UO-31 renal and with NCI-H522 lung was greater than 100 µM in each case.

For the compound `COC(=O)/C(C#N)=C1\CCC(O)N1C` (centres undefined), the TGI with K-562 leukemia, in the experiment with SNB-19 CNS, in the experiment with HCC-2998 colon, in the experiment on MALME-3M melanoma, with UO-31 renal and with NCI-H522 lung was greater than 100 µM throughout.

Turning to `COC(=O)C(C(=O)C(=O)Nc1ccccc1C(C)=O)c1nc2ccc(Cl)cc2[nH]c1=O` (centres undefined), the TGI in the experiment with K-562 leukemia, in the experiment with A498 renal, in the experiment on SNB-19 CNS, in the experiment with HCC-2998 colon, in the experiment on MALME-3M melanoma and in the experiment with UO-31 renal was greater than 100 µM throughout.

Turning to `Cc1oc2c(C)c(O)c3c(c2c1C1(C)OCCO1)C(=O)C=C(Cl)C3=O`, the TGI in the experiment with K-562 leukemia, with A498 renal, in the experiment on SNB-19 CNS, in the experiment with UO-31 renal and with NCI-H522 lung was greater than 100 µM throughout.

For the origin of these results see PubChem BioAssay (NCI).
